# Experimental data taken from patent US20200405728A1, “METHODS OF PREVENTING AND TREATING HYPOGLYCEMIA IN TYPE 1 AND TYPE 2 DIABETES PATIENTS” (Ferox Therapeutics LLC, priority 2018, published 2020).
# Counter-ions that a name gives are not always drawn.
# Tested on: 3D INSIGHT Islet Microtissues (primary human pancreatic islet cells)
# Assay: Glucagon secretion assay (glucagon ELISA) in 3D INSIGHT Islet Microtissues
# Assay type: cell-based
# Conditions: for dose dependency of the increase in glucagon secretion: Example 2, donor AFCS437, 1, 10 and 100 μM; for fold induction at 10 µM / fold induction at 100 µM: Homo sapiens, Pancreatic islet; for fold induction at 10 µM: donor AFBM114, 10 μM; for fold induction at 100 µM: donor AFBM114, 100 μM
# Description: This and the following example make use of 3D INSIGHT® Islet Microtissues (InSphero AG, Schlieren, Switzerland), an in vitro model system for diabetes research produced by optimized dissociation and controlled scaffold-free reaggregation of primary human pancreatic islet cells. This allows precise control over the newly forming islet microtissue size and eliminates contaminating exocrine material while ensuring homogeneous and native-like distribution of endocrine cells within each tissue. The resulting islet tissues display long-term (>28 days) and robust function, enabling high throughput and longitudinal study of pancreatic islet function, regulation, and preservation.
# 1. The diabetes model system 3D INSIGHT® Islet Microtissues was obtained from a donor. 2. […] 3. Six replicates for each sample were tested. 4. L-arginine was used as a positive control. 5. DMSO was used a solvent for BF2649 hydrochloride and cyproheptadine hydrochloride; ddH2O was used as a solvent for L-arginine. […] 6. Glucagon secretion was quantified with a glucagon ELISA (Mercodia, Uppsala, Sweden). 7. Total ATP content was also measured during the assay.
# Referring to FIG. 5, a timeline (500) of the assay is shown. Day 0 (510) involved producing the 3D INSIGHT® Human Islet Microtissues. On Day 5 (520), the samples were moved to a receiving plate. On Day 7 (530), the islet size, viability, and function were verified by quality control. On the final day of the test (540), the glucagon secretion assay was performed with ELISA, and ATP content was measured.
# (§1) Before the assay, conditioned media was removed, islet microtissue washed twice with Kreb's Ringer HEPES buffer (KRHB) containing 5.5 mM glucose and were equilibrated in KRHB containing 5-5 mM glucose for 1.5 hours. Equilibration buffer was removed, islet microtissues were washed twice in KRHB with 5-5 mM glucose. Glucagon secretion was performed in KRHB with either 8 mM or 1 mM glucose for 2 hours in the presence of the test compounds. Conditioned KRHB were collected for analysis of glucagon content with an ELISA (Mercodia, Uppsala, Sweden).
# A second donor (UNOS ID #AFCS437) was used as well.
# as §1, with “5-5” for “5.5”
# [1] = Example 1, donor AFBM114, 2 hours
# [2] = Example 1, donor AFBM114, 2 hours, compared to vehicle at 1 mM glucose (FIG. 6)
compound,measurement,setting,value
"O=C(O)COCCN1CCN(C(c2ccccc2)c2ccc(Cl)cc2)CC1 (stereo not drawn) [Cetirizine, cetirizine dihydrochloride]",dose dependency of the increase in glucagon secretion,,much less pronounced
same,glucagon secretion (effect),"Example 2, donor AFCS437, all tested concentrations, compared to vehicle at 1 mM glucose (FIG. 10)",only slightly increased glucagon secretion
N=C(N)NCCC[C@H](N)C(=O)O [L-arginine],"increase in glucagon secretion, 1 mM glucose versus 8 mM glucose",[1],higher at 1 mM glucose than at 8 mM glucose
same,glucagon secretion (effect),[2],increased glucagon secretion
"Clc1ccc(CCCOCCCN2CCCCC2)cc1 [BF2649 hydrochloride, 1-{3-[3-(4-chlorophenyl)propoxy]propyl}piperidine]",dose dependence of the increase in glucagon secretion,"Example 1, donor AFBM114, 1, 10 and 100 μM, 1 mM glucose",dose dependent
same,"increase in glucagon secretion, 1 mM glucose versus 8 mM glucose",[1],higher at 1 mM glucose than at 8 mM glucose
same,glucagon secretion (effect),[2],increased glucagon secretion
same,glucagon secretion (effect),"Example 2, donor AFBM114, 10 μM, 8 mM glucose (FIG. 8)",increased glucagon secretion
same,glucagon secretion (effect),"Example 2, donor AFBM114, 100 μM, 8 mM glucose (FIG. 8)",increased glucagon secretion
same,increase in glucagon secretion compared with 5 mM arginine,"Example 2, donor AFCS437, 100 μM",similarly to 5 mM arginine
same,dose dependency of the increase in glucagon secretion,,significant dose dependency
same,fold induction at 10 µM,1 mM glucose (Example 1),1.8
same,fold induction at 10 µM,8 mM glucose (Example 2),1.8
same,fold induction at 100 µM,1 mM glucose (Example 1),7.5
same,fold induction at 100 µM,8 mM glucose (Example 2),2
same,increase in glucagon secretion compared with 5 mM arginine,"previously tested donor (AFBM114), 100 μM",similarly to 5 mM arginine
CN1CCC(=C2c3ccccc3C=Cc3ccccc32)CC1 [cyproheptadine hydrochloride],"increase in glucagon secretion, 1 mM glucose versus 8 mM glucose",[1],higher at 1 mM glucose than at 8 mM glucose
same,glucagon secretion (effect),[2],increased glucagon secretion
